# Patent publication US11214803B2, “Modulators of YAP1 expression” (Ionis Pharmaceuticals, Inc., priority 2019, dated 2022)
# Strand notation (5' to 3'): a small letter for the sugar, then the base; units joined by * are phosphorothioate-linked, units joined directly phosphodiester-linked; [ ] holds rarer units or linkages, { } end groups; capitals alone tell only the bases. k = constrained ethyl (cEt); [5mC] = 5-methylcytosine; d = 2'-deoxy (DNA)
# System: Yap1 mRNA
# Experiment: Antisense inhibition of human Yap1 in A-431 cells by cEt gapmers, single dose (Example 3, RTS36584)
# Format: cell-based
# How it was run: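 Free uptake, 2,000 nM, ~48 h, A-431 cells. Gapmers: 16-mer 3-10-3 cEt wings, PS backbone, 5-MeC. Readout qRT-PCR, RiboGreen-normalized, % UTC.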
# [1] = Table 26, Yap1 mRNA by 3-10-3 cEt gapmers targeting SEQ ID NO.: 1, and 2, percent of untreated control
# [2] = Table 8, A-431 cells, 5,000 cells per well, free uptake, 2,000 nM, approximately 48 hours, RTS36584, normalized to RIBOGREEN, Yap1 mRNA relative to untreated control cells
# [3] = Table 35, Yap1 mRNA as percent of untreated control, 3-10-3 cEt gapmers targeting SEQ ID NO: 1 and 2, single dose
# [4] = Table 29, Yap1 mRNA as percent of untreated control, 3-10-3 cEt gapmers targeting SEQ ID NO.: 1, and 2
# [5] = Table 12, A-431 cells, 5,000 cells per well, free uptake, 2,000 nM modified oligonucleotide, approx. 48 hours, RTS36584, normalized to RIBOGREEN, Yap1 mRNA relative to untreated control cells
# [6] = Table 34, Yap1 mRNA as percent of untreated control, 3-10-3 cEt gapmers targeting SEQ ID NO: 1 and 2, single dose
# [7] = Table 13, A-431 cells, 5,000 cells per well, free uptake, 2,000 nM modified oligonucleotide, approx. 48 hours, RTS36584, normalized to RIBOGREEN, Yap1 mRNA relative to untreated control cells
# [8] = Table 27, Yap1 mRNA by 3-10-3 cEt gapmers targeting SEQ ID NO.: 1, and 2, percent of untreated control
substance,measurement,setting,value
1076332 (antisense kT*kA*kT*dA*dA*dG*dG*dA*dA*dT*dG*dG*d[5mC]*kA*kA*k[5mC]) [compound 1076332],YAP1 (% UTC),[1],107 % UTC
958397 (antisense k[5mC]*kA*kG*dG*d[5mC]*dT*dA*dT*dT*dA*dA*dG*d[5mC]*kT*kG*kT) [Compound 958397],YAP1 (% UTC),[2],127 % UTC
1074197 (antisense kT*kG*k[5mC]*d[5mC]*d[5mC]*dG*dG*dG*dT*d[5mC]*d[5mC]*dG*dG*kA*k[5mC]*kG) [compound 1074197],YAP1 (% UTC),[3],91 % UTC
1074831 (k[5mC]*kG*kA*dG*dG*dA*dT*dA*dA*dA*dA*dT*d[5mC]*k[5mC]*kA*k[5mC]; antisense) [compound 1074831],YAP1 (% UTC),[4],35 % UTC
958779 (antisense kT*k[5mC]*kG*dA*dA*dT*dA*dT*dA*dG*dA*dG*dG*k[5mC]*k[5mC]*kT) [Compound 958779],YAP1 (% UTC),[5],80 % UTC
1075726 (kA*kG*kT*dT*dA*dT*d[5mC]*d[5mC]*dT*dA*dT*d[5mC]*dT*kG*kT*k[5mC]; antisense) [compound 1075726],YAP1 (% UTC),"Table 28, Yap1 mRNA as percent of untreated control, 3-10-3 cEt gapmers targeting SEQ ID NO.: 1, and 2",14 % UTC
1075599 (antisense kA*k[5mC]*k[5mC]*d[5mC]*dT*dA*dT*dA*dG*d[5mC]*dT*dT*dT*kA*kG*kG) [compound 1075599],YAP1 (% UTC),[4],90 % UTC
1076277 (kG*k[5mC]*kT*dA*dA*dA*dA*d[5mC]*dA*dT*d[5mC]*dA*dG*kA*kT*kA; antisense) [compound 1076277],YAP1 (% UTC),[3],24 % UTC
1076469 (kG*kT*kA*dA*dA*dA*dG*dG*dG*dA*dA*d[5mC]*dT*kA*kA*kG; antisense) [compound 1076469],YAP1 (% UTC),[3],69 % UTC
1076053 (kT*kA*k[5mC]*d[5mC]*dA*dA*d[5mC]*dA*dA*dG*dG*d[5mC]*dA*kT*k[5mC]*kA; antisense) [compound 1076053],YAP1 (% UTC),[3],55 % UTC
958487 (kT*k[5mC]*k[5mC]*dA*dA*dA*d[5mC]*dA*dG*dG*d[5mC]*dT*d[5mC]*kA*k[5mC]*kT; antisense) [Compound 958487],YAP1 (% UTC),"Table 10, A-431 cells, 5,000 cells per well, free uptake, 2,000 nM oligonucleotide, approx. 48 hours, primer probe set RTS36584, Yap1 mRNA normalized to RIBOGREEN, percent of untreated control",10 % UTC
1074836 (kA*kA*k[5mC]*dA*dA*d[5mC]*dA*dT*dG*d[5mC]*dT*dT*dG*k[5mC]*kG*kA; antisense) [compound 1074836],YAP1 (% UTC),[6],27 % UTC
958770 (antisense kA*k[5mC]*kA*dG*dA*dG*d[5mC]*dG*dG*dT*dG*d[5mC]*dA*k[5mC]*k[5mC]*k[5mC]) [Compound 958770],YAP1 (% UTC),[7],64 % UTC
1076429 (k[5mC]*kA*kT*dT*dA*d[5mC]*dA*dA*dG*d[5mC]*dA*dT*dA*kG*kG*k[5mC]; antisense) [compound 1076429],YAP1 (% UTC),[8],26 % UTC
1075604 (antisense kA*kT*kA*dA*dT*dT*dA*dA*dG*d[5mC]*dT*dA*dT*k[5mC]*kA*k[5mC]) [compound 1075604],YAP1 (% UTC),[6],81 % UTC
958510 (kT*kA*k[5mC]*d[5mC]*dA*d[5mC]*dA*d[5mC]*dT*dA*dT*dT*dA*kT*kA*kA; antisense) [Compound 958510],YAP1 (% UTC),[7],43 % UTC
1074380 (kG*kT*k[5mC]*dT*dG*dG*dG*dA*dA*dA*d[5mC]*dG*dG*kT*kT*k[5mC]; antisense) [compound 1074380],YAP1 (% UTC),[1],11 % UTC
1076045 (kG*kT*kG*d[5mC]*dA*dA*dT*dA*dA*dA*dT*dA*dG*kT*kT*k[5mC]; antisense) [compound 1076045],YAP1 (% UTC),[8],11 % UTC
1074133 (kG*k[5mC]*kG*dG*d[5mC]*d[5mC]*d[5mC]*d[5mC]*dG*d[5mC]*dA*dT*d[5mC]*k[5mC]*k[5mC]*k[5mC]; antisense) [compound 1074133],YAP1 (% UTC),[3],101 % UTC
958739 (antisense kA*kG*k[5mC]*dA*dA*dT*dA*dG*dA*dG*dT*dA*dA*k[5mC]*k[5mC]*kA) [Compound 958739],YAP1 (% UTC),[5],4 % UTC
958377 (antisense kG*k[5mC]*kT*dG*dG*dG*dA*dT*dT*dG*dA*dT*dA*kT*kT*k[5mC]) [Compound 958377],YAP1 (% UTC),[2],9 % UTC
1076428 (kA*kT*kT*dA*dA*dA*dA*dA*dG*dA*dA*dG*d[5mC]*kA*k[5mC]*kG; antisense) [compound 1076428],YAP1 (% UTC),[1],53 % UTC
